We go through one compound from paper PMC7883289, “Synthesis of Paeonol-Ozagrel Conjugate: Structure Characterization and In Vivo Anti-Ischemic Stroke potential” (Frontiers in Pharmacology, 2021).

Series [1] in a line: Partition coefficient, shake-flask method (n-octanol / aqueous phase). Type of series: physicochemical. The following applies: n-octanol / aqueous phase buffered with phosphate pH 7.4, shake-flask, HPLC. The procedure:
The partition coefficient of POC was established by the shake-flask method between n–octanol and an aqueous phase ([Redasani and Bari, 2012]). The aqueous phase buffered with phosphate (pH 7.4, 100 ml) and n–octanol (100 ml) was mixed well, placed in a shaking air bath for 72 h, and then left to equilibrate until the two saturated phases completely separated. POC (5 mg) was dissolved in 50 ml of saturated n-octanol and diluted with the saturated aqueous equally. The mixture was placed in an oscillator and shaken for 1 h until the two phases separated. Concentration was analyzed by HPLC method and then the partition coefficient was calculated as the ratio of the concentration of POC in n–octanol to aqueous. All experiments were made in triplicate.

Series [2] can be described thus: Pharmacokinetic study after intravenous injection, LC-MS/MS of plasma. Type of series: in vivo. The following applies: rat, rats, 4.5 mg/kg. Here is the method:
Six rats were given POC (4.5 mg/kg) by intravenous injection, then, an approximately 1.0 ml sample of blood was obtained from the fossa orbitalis vein of rats and placed into heparin–rinsed EP pipes according to a programmed schedule at 3, 5, 10, 20, 30, 45, 60, 120, and 240 min after dosing.
Plasma (80 μL) was mixed with glibenclamide (20 μL) as the internal standard, and then 900 μL of acetonitrile was used to precipitate the protein. All samples were vortex–mixed for 5 min, then centrifuged at 15,000 r/min for 10 min. Then, 800 μL of supernatant was measured, blowed dry by nitrogen, and reconstituted with 100 μL of acetonitrile.
The Thermo Fisher Scientific Hypersil GOLD column (2.1 mm × 100 mm, 1.9 μm) was used as the analytical column; it was maintained at 30°C with 1.0 mmol/L of ammonium acetate (A) and mathanol (B) as the mobile phase, using glibenclamide as the internal standard (IS). The gradient elution program was operated as follows: 0–1.5 min, 55% B–65% B; 1.5–2.5 min, 65% B–80% B; 2.5–3.0 min, 80% B–90% B; 3.0–4.0 min, 90% B; 4.0–4.5 min, 90% B–55% B; 4.5–6.0 min, 55% B. The sample injection volume was 5.0 μL, and the flow rate set at 0.2 ml/min.
Mass spectrometry was operated with multiple reaction monitoring (MRM) in a positive ionization mode. The ion pair of POC is m/z 377.1 and 163.0; the declustering voltage (DP) is 28 eV; and the collision energy (CE) is 30 eV. The ion pair of glibenclamide is m/z 494.1 and 169.0, and the DP is 65 eV, the CE is 50 eV.

In series [3] the test system is middle cerebral artery occlusion (MCAO) rats. The experiment in a line: Measurement of infarct volume by TTC staining in MCAO rats. The following applies: 24 h after reperfusion, single iv dose: paeonol and OS 3 mg/kg, POC 4.5 mg/kg, n = 6. The series is classed as in vivo. The procedure:
Male Sprague Dawley (SD) rats weighing among 220 g-230 g (Anhui Medicine University, Hefei, China; certificate number: SCXK20190,003) were housed under ad libitum access to food and water with a standardized light-dark cycle condition (25 ± 2°C, 12-hour light/dark cycle). All the experimental protocols were performed in accordance with the Institutional Animal Care and Use Committee of Anhui University of Chinese Medicine (Animal ethics number: AHUCM-rats-2019001). We used the minimal number of study animals (n = 6 rats in each group for different experiments). The rats were fastened upon the operating table in a supine position after being anesthetized with 2% pelltobarbitalum natricum (50 mg/kg). After disinfection of the skin within close proximity of the operative region, the right common carotid artery (CCA), external carotid artery (ECA) and internal carotid artery (ICA) were exposed with blunt dissection. The CCA was temporarily ligated and the ECA were permanently ligated ([Liu et al., 2016]). A nylon monofilament surgical thread was introduced into the ICA to block the MCA when the blunted distal end met resistance. After 2 h of occlusion, reperfusion was accomplished to restore blood supply to the MCA area by removing the filament ([Li et al., 2009]; [Zhai et al., 2017]). […] Rats were split randomly into five groups, including the sham, model, paeonol, OS and POC group. After 2 h of reperfusion, the paeonol and OS groups received the drug by intravenous injection at a single dose of 3 mg/kg ([Imamura et al., 2003]; [Park et al., 2010]; [Gai et al., 2019]), which the doses of paeonol and OS uesd previously were benificial in rats and the dose of OS is within the clinical dose range. […] Cerebral infarction volume was determined using TTC staining. […] The infarction and total brain volume were quantified using ImageJ software. The infarct volume was calculated as a ratio of the infarcted tissue relative to the total area of the whole-brain coronal section ([Ye and Gao, 2008]; [Katayama et al., 2017]). […]

`COc1ccc(C(C)=O)c(OC(=O)C=Cc2ccc(Cn3ccnc3)cc2)c1` [POC, paeonol-ozagrel conjugate] had a logD in series [1] of 0.425. Moreover, in series [2], the AUC(0-t) was 264 ng·h/mL, the Cmax worked out at 465 ± 269 ng/mL, the clearance amounted to 277 ± 62.3 mL/min/kg and the half-life worked out at 53.5 ± 19.6 min. In addition, the MRT last in series [2] (read-out: MRT0-t (converted)) is 51.9 min. The “cerebral infarction volume percentage” value in series [3] was 11.77% ± 2.53.

As usually defined, the logD is the decadic logarithm of the distribution of all forms, ionised or not, between an organic phase and buffer at a given pH. Low readings indicate a more hydrophilic compound, high ones a more lipophilic compound. In general, AUC(0-t) refers to exposure summed from dosing to a finite time, without extrapolation to infinity. High values mean high exposure, low ones low exposure. By Cmax is commonly meant the maximum level reached in the sampled fluid or tissue. One may read the clearance as the volume of plasma or blood freed of the substance per unit of time. A higher clearance goes with efficient removal. In general, half-life refers to how long it takes for the measured level to halve.
